PubChem BioAssay AID1963828 (Molecular Pharmacology Branch, DTP, NCI, 2024)

Tested on: 991263-137-R1-J2-PDC complex spheroid viability
Test: Anticancer human tumor 991263-137-R1-J2-PDC patient-derived colon adenocarcinoma cell line growth inhibition [POLQ]
Conditions: for IC50: curve of first compound; for viability, T/C: stronger effect = lower value
Protocol: Multicellular complex tumor spheroid response to Polymerase (POL) inhibitors (novobiocin, ART-558, RP6685) in combination with a variety of drugs and investigational agents in selected tumor cell lines
The POL inhibitors (novobiocin, ART-558, and RP6685) were evaluated both individually and in combination with standard of care and investigational anticancer small molecules within a complex spheroid model of solid tumors. . Complex spheroids include a stromal component modeled by human endothelial cells (HUVEC) and fibroblasts modeled by human mesenchymal stem cells (MSCs). The concentration ranges selected for each drug and investigational agent were based upon clinically achievable concentrations if the clinical Cmax of the agent was known.
Compounds. The drugs and investigational agents: novobiocin (NSC847541), ART-558 (NSC835418), RP-6685 (NSC848927), peposertib (NSC802822), ceralasertib (NSC780249), elimusertib (NSC800525), camonsertib (NSC841442), AZD-1390 (NSC803789), olaparib (NSC753686), talazoparib (NSC767125), rucaparib (NSC756644), sotorasib (NSC818433), MRTX-1133 (NSC836407), SN-38 (NSC673596), topotecan (NSC609699), epotoside (NSC141540), doxorubicin (NSC123127), gemcitabine (NSC613327), 5-fluorouracil (NSC19893), paclitaxel (NSC125973), vemurafenib (NSC761431), MSA-2 (NSC828583), SN-011 (NSC837082), adavosertib (NSC754352), prexasertib (NSC758257), carboplatin (NSC241240) and oxaliplatin (NSC266046), were obtained from the National Cancer Institute (NCI) Developmental Therapeutics Program Chemical Repository (21). The FDA-approved anticancer drug set is available from the Developmental Therapeutics Program at https://dtp.cancer.gov/organization/dscb/obtaining/. […] The stock solutions were prepared in dimethyl sulfoxide (DMSO, Sigma-Aldrich, St. Louis, MO, cat. D2650), except for the platinum compounds which were prepared in saline (Quality Biological, Gaithersburg, MD, cat. 114-055-101), at 800-fold the tested concentration and stored at -70 degrees C prior to their use. All drugs and investigational agents were tested over a range starting from a high concentration at or near the clinical Cmax and decreasing in half-log increments. If the clinical Cmax for an agent had not been determined, the highest concentration tested was 10 microM, except for SN-38, which was tested at a high concentration of 1 microM.
Cell Culture. All cells were maintained in an incubator at 37 degrees C and 5% CO2 with 95% humidity. The PDC lines were cultured according to standard operating procedures established by the NCI PDMR (https://pdmr.cancer.gov). Table 3 of the manuscript, lists the cell lines along with the number of the three cell types plated to form the mct-spheroids and media for tumor cell growth. After thawing, all PDC lines, except 997537-175-T-J1-PDC and 415267-285-R-J2-PDC, were cultured in Matrigel-coated flasks prepared with a working solution of 1X Ham's F-12 nutrient mix, without supplementation (Thermo Fisher Scientific, cat. 11765054), 100 U/mL penicillin-streptomycin (Thermo Fisher Scientific, cat. 15140122), and 2.5% Matrigel (Corning Inc., Corning, NY, cat. 354248) for the first three passages. The two PDC lines 997537-175-T-J1-PDC and 415267-285-R-J2-PDC were cultured on uncoated flasks. The 857933-349-R-J2-PDC line was cultured in 6C/Colon 1B media containing advanced DMEM/F-12 (Thermo Fisher Scientific, cat. 12634028), 10 mM HEPES (Thermo Fisher Scientific, cat. 15630080), 1X GlutaMAX supplement (Thermo Fisher Scientific, cat. 35050061), 0.1 mg/mL primocin (InvivoGen, San Diego, CA, cat. ant-pm-2), 10% defined fetal bovine serum, heat inactivated (HyClone Laboratories Inc., Logan, UT, cat. SH30070.03HI), 50% L-WRN conditioned media (ATCC, cat. CRL-3276), 1.25 mM N-Acetyl-L-cysteine (Sigma-Aldrich, cat. A9165), 10 mM nicotinamide (Sigma-Aldrich, cat. N0636), 1X B-27 supplement (Thermo Fisher Scientific, cat. 17504044), 1X N-2 supplement (Thermo Fisher Scientific, cat. […]

[1] = second compound 0.0316 µM, first compound 0.0316 µM
[2] = second compound 0.0316 µM, first compound 0.1 µM
[3] = second compound 0.1 µM, first compound 0.0316 µM
[4] = second compound 0.1 µM, first compound 0.1 µM
[5] = second compound 0.316 µM, first compound 0.0316 µM
[6] = second compound 0.316 µM, first compound 0.1 µM
[7] = second compound 1 µM, first compound 0.0316 µM
[8] = second compound 1 µM, first compound 0.1 µM
[9] = second compound 3.16 µM, first compound 0.0316 µM
[10] = second compound 3.16 µM, first compound 0.1 µM
[11] = second compound 10 µM, first compound 0.0316 µM
[12] = second compound 10 µM, first compound 0.1 µM
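Also: spheroids exposed to compounds for 7 days before readout.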
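For viability, T/C in this document: 100% = DMSO vehicle control viability.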

SMILES: CC[C@@]1(O)C(=O)OCc2c1cc1n(c2=O)Cc2cc3c(CN(C)C)c(O)ccc3nc2-1 + Cc1cccc(N(C)C(=O)C2C(O)CCN2c2nc(C)cc(C(F)(F)F)c2C#N)c1
- IC50 (second compound 0.0316 µM): > 0.1 µM
- IC50 (second compound 0.1 µM): > 0.1 µM
- IC50 (second compound 0.316 µM): > 0.1 µM
- IC50 (second compound 1 µM): > 0.1 µM
- IC50 (second compound 3.16 µM): > 0.1 µM
- IC50 (second compound 10 µM): > 0.1 µM
- viability, T/C (second compound 0.0316 µM, first compound 0.000316 µM): 111%
- viability, T/C (second compound 0.0316 µM, first compound 0.001 µM): 115%
- viability, T/C (second compound 0.0316 µM, first compound 0.00316 µM): 111%
- viability, T/C (second compound 0.0316 µM, first compound 0.01 µM): 106%
- viability, T/C [1]: 114%
- viability, T/C [2]: 97.3%
- viability, T/C (second compound 0.1 µM, first compound 0.000316 µM): 112%
- viability, T/C (second compound 0.1 µM, first compound 0.001 µM): 111%
- viability, T/C (second compound 0.1 µM, first compound 0.00316 µM): 94%
- viability, T/C (second compound 0.1 µM, first compound 0.01 µM): 118%
- viability, T/C [3]: 105%
- viability, T/C [4]: 92.8%
- viability, T/C (second compound 0.316 µM, first compound 0.000316 µM): 117%
- viability, T/C (second compound 0.316 µM, first compound 0.001 µM): 130%
- viability, T/C (second compound 0.316 µM, first compound 0.00316 µM): 101%
- viability, T/C (second compound 0.316 µM, first compound 0.01 µM): 95.9%
- viability, T/C [5]: 101%
- viability, T/C [6]: 91.4%
- viability, T/C (second compound 1 µM, first compound 0.000316 µM): 111%
- viability, T/C (second compound 1 µM, first compound 0.001 µM): 114%
- viability, T/C (second compound 1 µM, first compound 0.00316 µM): 109%
- viability, T/C (second compound 1 µM, first compound 0.01 µM): 118%
- viability, T/C [7]: 110%
- viability, T/C [8]: 81.5%
- viability, T/C (second compound 3.16 µM, first compound 0.000316 µM): 101%
- viability, T/C (second compound 3.16 µM, first compound 0.001 µM): 98.3%
- viability, T/C (second compound 3.16 µM, first compound 0.00316 µM): 98.2%
- viability, T/C (second compound 3.16 µM, first compound 0.01 µM): 86.6%
- viability, T/C [9]: 96.2%
- viability, T/C [10]: 91.3%
- viability, T/C (second compound 10 µM, first compound 0.000316 µM): 117%
- viability, T/C (second compound 10 µM, first compound 0.001 µM): 120%
- viability, T/C (second compound 10 µM, first compound 0.00316 µM): 108%
- viability, T/C (second compound 10 µM, first compound 0.01 µM): 97.5%
- viability, T/C [11]: 90.8%
- viability, T/C [12]: 77%

SMILES: CCc1cc2c(N3CCc4c(cc(Cn5ccnc5)cc4-c4cn(C)nc4C(F)(F)F)C3=O)cc(C)nc2c(OC)n1 + Cc1cccc(N(C)C(=O)C2C(O)CCN2c2nc(C)cc(C(F)(F)F)c2C#N)c1
- IC50 (second compound 0.0316 µM): > 10 µM
- IC50 (second compound 0.1 µM): > 10 µM
- IC50 (second compound 0.316 µM): > 10 µM
- IC50 (second compound 1 µM): > 10 µM
- IC50 (second compound 3.16 µM): > 10 µM
- IC50 (second compound 10 µM): > 10 µM
- viability, T/C [1]: 99.4%
- viability, T/C [2]: 111%
- viability, T/C (second compound 0.0316 µM, first compound 0.316 µM): 95.7%
- viability, T/C (second compound 0.0316 µM, first compound 1 µM): 97.9%
- viability, T/C (second compound 0.0316 µM, first compound 3.16 µM): 96.7%
- viability, T/C (second compound 0.0316 µM, first compound 10 µM): 89.5%
- viability, T/C [3]: 109%
- viability, T/C [4]: 107%
- viability, T/C (second compound 0.1 µM, first compound 0.316 µM): 96.2%
- viability, T/C (second compound 0.1 µM, first compound 1 µM): 87.9%
- viability, T/C (second compound 0.1 µM, first compound 3.16 µM): 98%
- viability, T/C (second compound 0.1 µM, first compound 10 µM): 99.8%
- viability, T/C [5]: 113%
- viability, T/C [6]: 93.8%
- viability, T/C (second compound 0.316 µM, first compound 0.316 µM): 101%
- viability, T/C (second compound 0.316 µM, first compound 1 µM): 91.4%
- viability, T/C (second compound 0.316 µM, first compound 3.16 µM): 107%
- viability, T/C (second compound 0.316 µM, first compound 10 µM): 88.9%
- viability, T/C [7]: 100%
- viability, T/C [8]: 101%
- viability, T/C (second compound 1 µM, first compound 0.316 µM): 84.5%
- viability, T/C (second compound 1 µM, first compound 1 µM): 98.3%
- viability, T/C (second compound 1 µM, first compound 3.16 µM): 104%
- viability, T/C (second compound 1 µM, first compound 10 µM): 82%
- viability, T/C [9]: 101%
- viability, T/C [10]: 96%
- viability, T/C (second compound 3.16 µM, first compound 0.316 µM): 106%
- viability, T/C (second compound 3.16 µM, first compound 1 µM): 111%
- viability, T/C (second compound 3.16 µM, first compound 3.16 µM): 95.3%
- viability, T/C (second compound 3.16 µM, first compound 10 µM): 96.7%
- viability, T/C [11]: 95.7%
- viability, T/C [12]: 105%
- viability, T/C (second compound 10 µM, first compound 0.316 µM): 90.9%
- viability, T/C (second compound 10 µM, first compound 1 µM): 90.7%
- viability, T/C (second compound 10 µM, first compound 3.16 µM): 84.5%
- viability, T/C (second compound 10 µM, first compound 10 µM): 92.1%
